# Columns and labels:
# Type in all cases: in vitro ADME
# CYP2C9 = CYP2C9 (Homo sapiens, UniProt P11712); assay: Metabolite formation by recombinant human CYP2C9; details: trazodone 4 μM; NADPH; 37 °C, 40 min
# Procedure: (§1) Each reaction was terminated with acetonitrile, centrifuged, and the supernatant was analyzed by identical UHPLC-Orbitrap setup outlined in §2.2, allowing direct comparison of metabolite spectra across all in-vitro systems.
# AOX = target: T1, AOX (Homo sapiens, UniProt Q06278); assay: Metabolite formation by recombinant human AOX; details: trazodone 4 μM; 37 °C, 40 min
# T1 sequence (Q06278 1-1338): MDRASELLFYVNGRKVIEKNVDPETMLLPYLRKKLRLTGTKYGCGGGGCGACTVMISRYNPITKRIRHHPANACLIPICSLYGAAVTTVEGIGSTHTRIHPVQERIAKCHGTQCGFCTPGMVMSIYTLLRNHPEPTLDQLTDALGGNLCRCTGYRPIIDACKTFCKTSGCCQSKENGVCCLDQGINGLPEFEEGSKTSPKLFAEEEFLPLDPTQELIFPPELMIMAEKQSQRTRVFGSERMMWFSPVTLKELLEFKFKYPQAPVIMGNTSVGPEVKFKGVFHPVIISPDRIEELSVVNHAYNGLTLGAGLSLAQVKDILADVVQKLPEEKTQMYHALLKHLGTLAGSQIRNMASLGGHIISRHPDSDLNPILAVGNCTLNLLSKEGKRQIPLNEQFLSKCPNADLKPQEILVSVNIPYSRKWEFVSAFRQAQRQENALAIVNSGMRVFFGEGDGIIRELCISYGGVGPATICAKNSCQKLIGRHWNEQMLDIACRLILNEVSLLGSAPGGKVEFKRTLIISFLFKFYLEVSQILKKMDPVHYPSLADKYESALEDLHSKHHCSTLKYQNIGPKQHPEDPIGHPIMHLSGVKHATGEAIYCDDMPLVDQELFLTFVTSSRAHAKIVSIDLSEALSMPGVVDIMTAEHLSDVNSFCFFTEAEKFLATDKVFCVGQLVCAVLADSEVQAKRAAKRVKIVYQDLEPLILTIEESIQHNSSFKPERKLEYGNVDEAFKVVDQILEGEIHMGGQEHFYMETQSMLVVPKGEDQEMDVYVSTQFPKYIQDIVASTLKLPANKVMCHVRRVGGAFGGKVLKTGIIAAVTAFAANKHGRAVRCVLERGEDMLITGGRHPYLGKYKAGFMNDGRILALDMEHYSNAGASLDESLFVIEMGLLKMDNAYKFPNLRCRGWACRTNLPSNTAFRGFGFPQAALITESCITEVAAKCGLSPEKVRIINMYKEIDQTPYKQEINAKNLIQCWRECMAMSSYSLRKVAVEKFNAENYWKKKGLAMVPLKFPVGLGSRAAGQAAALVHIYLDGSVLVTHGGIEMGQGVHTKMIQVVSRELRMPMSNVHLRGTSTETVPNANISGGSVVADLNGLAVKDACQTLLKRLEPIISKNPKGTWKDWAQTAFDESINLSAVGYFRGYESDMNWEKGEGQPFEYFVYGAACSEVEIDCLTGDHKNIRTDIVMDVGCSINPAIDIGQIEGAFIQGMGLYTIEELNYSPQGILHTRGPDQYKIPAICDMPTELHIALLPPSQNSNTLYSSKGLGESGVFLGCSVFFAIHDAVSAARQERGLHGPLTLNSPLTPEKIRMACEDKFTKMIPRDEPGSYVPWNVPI
# CYP2C19 = CYP2C19 (Homo sapiens, UniProt P33261); assay: Metabolite formation by recombinant human CYP2C19; details: trazodone 4 μM; NADPH; 37 °C, 40 min
# Procedure: (§2) To confirm the role of individual CYP isoforms in metabolizing trazodone, recombinant human and rat CYP enzymes were employed in separate incubations. […] Each reaction was terminated with acetonitrile, centrifuged, and the supernatant was analyzed by identical UHPLC-Orbitrap setup outlined in §2.2, allowing direct comparison of metabolite spectra across all in-vitro systems. […] This procedure helped confirm the contributions of individual isoforms to specific biotransformation reactions.
# CYP2D4 = target: T2, CYP2D4 (Rattus norvegicus, UniProt Q64680); assay: Metabolite formation by recombinant rat CYP2D4; details: trazodone 4 μM; NADPH; 37 °C, 40 min
# T2 sequence (Q64680 1-500): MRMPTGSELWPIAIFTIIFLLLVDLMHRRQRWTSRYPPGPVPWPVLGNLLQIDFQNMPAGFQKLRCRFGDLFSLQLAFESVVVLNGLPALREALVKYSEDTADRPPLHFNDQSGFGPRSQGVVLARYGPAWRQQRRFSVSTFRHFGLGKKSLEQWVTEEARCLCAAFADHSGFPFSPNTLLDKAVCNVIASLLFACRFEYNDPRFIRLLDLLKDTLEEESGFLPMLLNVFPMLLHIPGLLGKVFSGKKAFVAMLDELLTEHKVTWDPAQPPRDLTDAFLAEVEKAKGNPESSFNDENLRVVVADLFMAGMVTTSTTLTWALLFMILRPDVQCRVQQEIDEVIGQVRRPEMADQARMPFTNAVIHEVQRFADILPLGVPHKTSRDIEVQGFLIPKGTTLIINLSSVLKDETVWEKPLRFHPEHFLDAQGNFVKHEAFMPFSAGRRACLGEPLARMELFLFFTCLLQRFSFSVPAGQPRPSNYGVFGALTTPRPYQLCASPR
# Procedure: as §2
# CYP2B6 = target: T3, CYP2B6 (Homo sapiens, UniProt P20813); assay: Metabolite formation by recombinant human CYP2B6; details: trazodone 4 μM; NADPH; 37 °C, 40 min
# T3 sequence (P20813 1-491): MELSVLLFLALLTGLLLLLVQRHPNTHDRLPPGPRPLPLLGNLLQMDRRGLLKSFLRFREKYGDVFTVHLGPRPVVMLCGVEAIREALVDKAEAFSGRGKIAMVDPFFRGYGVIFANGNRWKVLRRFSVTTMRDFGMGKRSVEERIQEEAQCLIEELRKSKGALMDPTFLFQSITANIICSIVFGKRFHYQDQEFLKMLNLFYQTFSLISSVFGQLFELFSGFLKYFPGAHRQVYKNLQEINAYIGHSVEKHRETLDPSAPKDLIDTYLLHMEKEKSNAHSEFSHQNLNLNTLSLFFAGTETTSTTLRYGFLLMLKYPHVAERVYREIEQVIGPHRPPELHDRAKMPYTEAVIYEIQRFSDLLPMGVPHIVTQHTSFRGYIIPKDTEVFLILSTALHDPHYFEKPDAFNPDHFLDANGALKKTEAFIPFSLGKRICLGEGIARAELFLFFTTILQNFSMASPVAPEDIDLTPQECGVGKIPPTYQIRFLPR
# Procedure: as §2
# CYP3A5 = CYP3A5 (Homo sapiens, UniProt P20815); assay: Metabolite formation by recombinant human CYP3A5; details: trazodone 4 μM; NADPH; 37 °C, 40 min
# Procedure: as §1
# Chain of CYP2C9 (P11712 whole entry): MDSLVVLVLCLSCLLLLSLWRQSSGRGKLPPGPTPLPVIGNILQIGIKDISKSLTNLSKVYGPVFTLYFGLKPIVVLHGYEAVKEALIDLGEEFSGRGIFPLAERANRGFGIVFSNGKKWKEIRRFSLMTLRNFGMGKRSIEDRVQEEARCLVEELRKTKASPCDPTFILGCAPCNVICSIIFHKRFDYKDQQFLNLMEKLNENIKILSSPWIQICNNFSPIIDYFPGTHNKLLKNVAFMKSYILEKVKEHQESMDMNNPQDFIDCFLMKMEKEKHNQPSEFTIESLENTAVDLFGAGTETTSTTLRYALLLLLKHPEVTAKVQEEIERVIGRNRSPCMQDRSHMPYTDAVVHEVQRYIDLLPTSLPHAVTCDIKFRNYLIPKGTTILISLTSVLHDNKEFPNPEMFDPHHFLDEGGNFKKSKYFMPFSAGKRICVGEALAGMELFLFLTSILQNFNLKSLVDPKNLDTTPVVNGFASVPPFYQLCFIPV
# Chain of CYP2C19 (P33261 whole entry, canonical isoform): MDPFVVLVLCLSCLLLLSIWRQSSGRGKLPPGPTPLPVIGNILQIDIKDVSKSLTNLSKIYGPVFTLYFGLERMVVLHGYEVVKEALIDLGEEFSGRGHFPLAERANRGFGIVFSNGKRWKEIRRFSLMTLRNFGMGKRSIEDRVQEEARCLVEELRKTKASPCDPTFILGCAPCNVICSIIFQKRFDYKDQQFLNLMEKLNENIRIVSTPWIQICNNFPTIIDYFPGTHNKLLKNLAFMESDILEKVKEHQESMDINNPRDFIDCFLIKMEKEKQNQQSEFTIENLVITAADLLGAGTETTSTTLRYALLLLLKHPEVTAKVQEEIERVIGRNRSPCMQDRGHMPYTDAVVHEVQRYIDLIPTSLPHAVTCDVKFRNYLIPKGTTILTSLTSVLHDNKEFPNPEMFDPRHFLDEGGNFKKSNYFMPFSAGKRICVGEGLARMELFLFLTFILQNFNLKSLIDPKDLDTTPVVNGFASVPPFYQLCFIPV
# Chain of CYP3A5 (P20815 whole entry): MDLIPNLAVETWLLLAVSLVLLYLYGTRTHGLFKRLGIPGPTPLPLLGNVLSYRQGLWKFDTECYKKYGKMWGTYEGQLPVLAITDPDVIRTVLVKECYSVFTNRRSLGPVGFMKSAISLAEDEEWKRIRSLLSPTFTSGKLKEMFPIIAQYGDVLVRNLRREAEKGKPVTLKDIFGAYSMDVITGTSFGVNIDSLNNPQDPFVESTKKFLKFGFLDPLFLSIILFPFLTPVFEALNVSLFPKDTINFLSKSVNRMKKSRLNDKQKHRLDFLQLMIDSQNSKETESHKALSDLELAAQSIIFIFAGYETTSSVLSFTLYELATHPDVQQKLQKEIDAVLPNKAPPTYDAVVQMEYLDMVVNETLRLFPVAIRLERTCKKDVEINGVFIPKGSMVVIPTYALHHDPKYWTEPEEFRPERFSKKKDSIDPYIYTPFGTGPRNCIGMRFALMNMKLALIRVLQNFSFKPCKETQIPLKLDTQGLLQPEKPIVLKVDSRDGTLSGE
Compound,Formation of trazodone phase I metabolite by recombinant human CYP2C9 (as LC/MS peak areas) (CYP2C9),Formation of trazodone phase I metabolite by recombinant human AOX (as LC/MS peak areas) (AOX),Formation of trazodone phase I metabolite by recombinant human CYP2C19 (as LC/MS peak areas) (CYP2C19),Formation of trazodone phase I metabolite by recombinant rat CYP2D4 (as LC/MS peak areas) (CYP2D4),Formation of trazodone phase I metabolite by recombinant human CYP2B6 (as LC/MS peak areas) (CYP2B6),Formation of trazodone phase I metabolite by recombinant human CYP3A5 (as LC/MS peak areas) (CYP3A5)
O=c1n(CCCN2CCNCC2)nc2ccccn12 [Metabolite M15],0,0,180,184,0,3343
O=c1n(CCCO)nc2ccccn12 [Metabolite M20],0,0,0,538,0,108
"Clc1cccc(N2CCNCC2)c1 [mCPP, m-chlorophenylpiperazine]",40,106,189,3166,112,16847
